Data set [1] has as its target T1, androgen receptor (Homo sapiens, UniProt P10275).
T1 construct: made in house; host or cells: insect cells (baculovirus expression system)
T1 sequence (P10275 1-920): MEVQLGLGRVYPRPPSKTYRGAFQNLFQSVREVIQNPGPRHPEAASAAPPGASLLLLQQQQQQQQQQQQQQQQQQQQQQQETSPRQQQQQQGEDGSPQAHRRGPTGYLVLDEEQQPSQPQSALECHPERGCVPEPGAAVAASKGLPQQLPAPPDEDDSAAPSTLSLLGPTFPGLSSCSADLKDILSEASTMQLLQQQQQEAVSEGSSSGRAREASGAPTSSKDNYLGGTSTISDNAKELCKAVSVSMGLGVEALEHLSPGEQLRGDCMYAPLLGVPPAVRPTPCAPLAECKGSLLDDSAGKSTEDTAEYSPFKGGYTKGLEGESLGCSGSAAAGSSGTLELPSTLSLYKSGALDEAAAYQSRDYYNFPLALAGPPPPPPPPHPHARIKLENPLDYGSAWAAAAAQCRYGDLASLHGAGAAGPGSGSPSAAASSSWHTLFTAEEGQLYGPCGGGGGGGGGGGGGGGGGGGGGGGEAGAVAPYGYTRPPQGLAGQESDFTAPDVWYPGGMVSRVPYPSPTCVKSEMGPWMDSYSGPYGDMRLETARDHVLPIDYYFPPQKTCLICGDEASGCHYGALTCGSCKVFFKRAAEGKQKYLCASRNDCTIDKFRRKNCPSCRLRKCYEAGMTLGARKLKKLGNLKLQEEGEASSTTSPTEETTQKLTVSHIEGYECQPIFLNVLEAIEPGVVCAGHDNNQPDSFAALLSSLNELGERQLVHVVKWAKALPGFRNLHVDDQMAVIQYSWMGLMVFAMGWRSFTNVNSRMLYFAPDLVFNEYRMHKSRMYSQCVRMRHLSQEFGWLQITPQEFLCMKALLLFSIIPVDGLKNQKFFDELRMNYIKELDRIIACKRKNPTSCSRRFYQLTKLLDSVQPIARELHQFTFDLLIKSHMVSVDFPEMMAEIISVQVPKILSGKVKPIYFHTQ
The experiment in a line: Test of receptor binding activity ([3H]DHT competition, hydroxyapatite). The following applies: competition with 5 nM [3H]DHT, overnight at 4° C.
Method: Then the resultant mixture was added into the plates with a volume of 195 μl each well immediately after mixed thoroughly, and incubated overnight at 4° C. After the incubation was completed, 50 μl of hydroxyapatite (HA) solution (25% HA, 25 mM Na3PO4, pH7.4) was added to each well of the calandria, uniformly mixed by shaking, and incubated for 10 minutes, during the period it was shaken once every 3 minutes. The centrifugation was conducted at 2500 rpm for 3 minutes, the supernatant was sucked out, and the precipitate was reserved. Two hundred μl of the assay buffer was added into each well, the precipitate is avoided to be shaken as far as possible, and the centrifugation was conducted for 3 minutes again. The supernatant was sucked out, and the precipitate was reserved. The centrifugation was repeated once, the supernatant was sucked out, and the precipitate was reserved. 300 μl of scintillation fluid was added to each well.

For data set [2], the system named is androgen receptor. The experiment in a line: Test of reporter gene expression (luciferase) in transfected MDA-MB-453 cells. The class given is cell-based, human. On the technique in general: A reporter such as luciferase makes a cellular process visible.
Another data set concerns LNCaP cells. The experiment in a line: Test of prostate cancer cell proliferation induced by DHT (MTT). The note with it: Homo sapiens, 144 h, read-out: IC50, inhibition of LNCaP cell proliferation stimulated by DHT. The class given is cell-based. Here is the method: LNCaP cells were cultured in RPMI1640 medium containing 10% FBS and 2 mM L-glutamine. The above medium was replaced by RPMI1640 medium containing 5% CD-FBS one day before experiment. When the cells grew to 90% confluence, the cells were added to 96-well plate with 4000 cells/90 μL/well after dissociated with trypsin, and were cultured at 37° C. overnight. The compounds to be tested were added to the cells with 10 μL/well after diluted to certain concentrations. […]. […] MTT solution (5 mg/mL) was added with 20 μL/well before the culture was completed. Light absorption values at 560 nm were measured with the reference wavelength of 690 nm.

[3] abbreviates: read-out: Receptor binding (IC50).

The structures appear in SMILES notation. Read-outs that look alike come from different tables or passages of the source.

The values that follow come from patent US7737288B2, “Non-steroidal androgen receptor modulators, preparation process, pharmaceutical composition and use thereof” (Shanghai Institute of Materia Medica Chinese Academy of …, priority 2005, dated 2010).

The compound `O=C(CC(Nc1ccc([N+](=O)[O-])c(C(F)(F)F)c1)c1ccccc1)c1ccc(Cl)cc1` (stereo not drawn) [MWW6016] displayed an IC50 at androgen receptor [1] (Receptor binding (IC50, nM)) of 9.49 nM.
For the compound `O=C(CC(Nc1ccc([N+](=O)[O-])cc1)c1ccco1)c1ccc(Cl)cc1` (stereo not drawn) [MWW6032], the “androgen receptor antagonistic activities, IC50 compared with bicalutamide” value in the data set with androgen receptor [2] is on record as “close to the androgen receptor antagonist bicalutamide”. Besides, in the data set on LNCaP cells, the IC50 is 2280 nM.
Turning to `Cc1ccc(C(=O)CC(Nc2ccc([N+](=O)[O-])cc2)c2ccccc2)cc1` (stereo not drawn) [Example 3, 3-phenyl-3-(4-nitroanilino)-1-(4-methylphenyl)-1-acetone], the melting point (usually the temperature, or range, at which the solid turns liquid) lay in the range of 157 to 159 °C.
`O=C(CC(Nc1ccc(Cl)c([N+](=O)[O-])c1)c1ccco1)c1ccc(Cl)cc1` (stereo not drawn) [MWW6030]: the IC50 on androgen receptor [1] (setting [3]) was 3.25 nM.
`Cc1ccc(C(=O)CC(Nc2ccccc2)c2ccc(C)cc2)cc1` (stereo not drawn) [Example 5, 3-(4-methylphenyl)-3-anilino-1-(4-methylphenyl)-1-acetone] registered a melting point of 131 to 132 °C.
For the compound `O=C(CC(Nc1ccc([N+](=O)[O-])cc1)c1ccccc1)c1ccc(Br)cc1` (stereo not drawn) [MWW6015], on androgen receptor [1] (setting [3]), the IC50 came to 2.85 nM.
`Cc1ccc(C(=O)CC(Nc2ccc(C(=O)O)cc2)c2ccccc2)cc1` (stereo not drawn) [Example 4, 3-phenyl-3-(4-carboxylanilino)-1-(4-methylphenyl)-1-acetone] gave a melting point of 208 to 210 °C.
`O=C(CC(Nc1ccc(Cl)c([N+](=O)[O-])c1)c1ccco1)c1ccc(Br)cc1` (stereo not drawn) [MWW6031]: the IC50 on androgen receptor [1] (setting [3]) was determined as 3.61 nM.
Same read-out and setting: to `O=C(CC(Nc1ccc([N+](=O)[O-])cc1)c1ccco1)c1ccc(Br)cc1` (stereo not drawn) [MWW6033] belongs 3.01 nM.
For the compound `O=C(CC(Nc1ccc(Cl)c([N+](=O)[O-])c1)c1ccccc1)c1ccc(Br)cc1` (stereo not drawn) [MWW6022], at androgen receptor [1] (setting [3]), the IC50 is 4.31 nM.
In the case of `O=C(CC(Nc1ccc(Cl)c([N+](=O)[O-])c1)c1ccccc1)c1ccc(Cl)cc1` (stereo not drawn) [MWW6021], the IC50 on androgen receptor [1] (setting [3]) was 6.45 nM.
Regarding `Cc1ccc(C(=O)CC(Nc2ccc(Cl)cc2)c2ccccc2)cc1` (stereo not drawn) [Example 1, 3-phenyl-3-(4-chloroanilino)-1-(4-methylphenyl)-1-acetone], the melting point fell in the range of 152 to 154 °C.
With `O=C(CC(Nc1ccc([N+](=O)[O-])cc1)c1ccccc1)c1ccc(Cl)cc1` (stereo not drawn) [MWW6003], at androgen receptor [1] (setting [3]), the IC50 is 2.93 nM. The “androgen receptor antagonistic activities, IC50 compared with bicalutamide” value in the data set with androgen receptor [2] was “close to the androgen receptor antagonist bicalutamide”.
